Earlier results in patent US11634860B2, “Articles and methods for dispensing metal ions into laundry systems” (Applied Silver, Inc., priority 2016, dated 2023).

Details: silver salt formed with the binder's counterion

## [Ag+].[Ag+].[S-2] [Ag2S]
  Solubility Limit: 6.21E−16 g/100 mL

## [Cl][Ag] [AgCl]
  Solubility Limit: 1.60E−04 g/100 mL

## [Ag+].[F-] [AgF]
  Solubility Limit: 100 g/100 mL
